{
  "source": "paper PMC11594534",
  "about": "“Antimicrobial Peptide Pro10-1D Exhibits Anti-Allergic Activity: A Promising Therapeutic Candidate” (International Journal of Molecular Sciences, 2024)",
  "key": {"[1]": {"tested_on": "T cells, B cells, and pDC cells", "settings": "cited from earlier work", "from_the_text": "(§1) AMPs are recognized for their antibacterial activities as well as their immunomodulatory activities. The mechanism for their immunomodulatory activity includes the regulation of inflammatory or anti-inflammatory cytokines and the induction of chemoattractants. […] LL-37, produced by neutrophils, neutralize ..."}, "TLR ligands": {"tested_on": "TLR ligands", "settings": "cited from earlier work", "from_the_text": "as §1"}, "BMMCs [2]": {"tested_on": "BMMCs", "assay": "Ionomycin-induced degranulation of BMMCs", "type": "cell-based, mouse", "settings": "BMMCs without IgE sensitization, 30 min pre-incubation, 1 μM ionomycin 15 min; two independent experiments", "procedure": "(§2) Figure 5 Pro10-1D suppresses the activity of Lyn and Fyn kinases in vitro. (A) BMMCs (3.0 × 10^5 cells/well) were pre-incubated with Pro10-1D or PP2 for 30 min and then stimulated with 1 μM ionomycin or 300 nM thapsigargin for 15 min. (B,C) KinaseProfiler radiometric protein kinase assays were performed with Lyn and Fyn kinase. The protocols used for the kinase assay are detailed in the Section 4 “Materials and Methods”. (A–C) The data are presented as the mean ± SEM from two independent experiments. Statistical significance is indicated by an asterisk; ** p < 0.01.\n(§3) RBL-2H3 cells (2.0 × 10^5 cells/well) were sensitized overnight with 20 ng/mL DNP-specific IgE in the culture medium. BMMCs (3.0 × 10^5 cells/well) were sensitized with 100 ng/mL DNP-specific IgE for 4 h in the culture medium. […] The reaction was stopped by the addition of 250 μL of a 0.1 M carbonate buffer, and absorbance was measured at 405 nm. The degranulation values were calculated as the ratio of β-hexosaminidase activity secreted into the supernatant to the total β-hexosaminidase activity from both the supernatant and cell extract."}, "BMMCs [3]": {"tested_on": "BMMCs", "assay": "Thapsigargin-induced degranulation of BMMCs", "type": "cell-based, mouse", "settings": "BMMCs without IgE sensitization, 30 min pre-incubation, 300 nM thapsigargin 15 min; two independent experiments", "procedure": "as §2, §3"}, "[4]": {"tested_on": "TLR4-NFκB signaling pathway, LPS-TLR4/MD-2", "settings": "competitive interference with the LPS-TLR4/MD-2 interaction; cited from earlier work", "from_the_text": "as §1"}, "E. coli-induced sepsis": {"tested_on": "E. coli-induced sepsis", "settings": "cited from earlier work", "from_the_text": "as §1"}, "BMMCs [5]": {"tested_on": "BMMCs", "assay": "Cell viability (CCK-8), BMMCs", "type": "cell-based, mouse", "settings": "4 h, CCK-8, absorbance 450 nm, up to highest experimental concentration", "procedure": "(§4) Figure 1 Pro10-1D inhibits IgE–Ag-induced degranulation in MCs. (A) RBL-2H3 cells and BMMCs were first sensitized with DNP-specific IgE and then treated with Pro10-1D or PP2 for 30 min, followed by the stimulation with DNP-HSA for 15 min. (B) IgE-sensitized RBL-2H3 cells were incubated with or without Pro10-1D for 30 min and then washed three times, followed by the stimulation with the antigen for 15 min. (C) The effects of Pro10-1D on cell viability were evaluated by incubating both RBL-2H3 cells and BMMCs with Pro10-1D for 4 h and measuring the absorbance at 450 nm using the CCK-8 kit. (A,B) The extent of degranulation from the MCs was determined by measuring the ratio of β-hexosaminidase activity released outside the cells to the total β-hexosaminidase activity. The data are presented as the mean ± SEM from three independent experiments, each performed in triplicate. Statistical significance is indicated by an asterisk; * p < 0.05, ** p < 0.01. PP2 is a general Src family kinase inhibitor.\n(§5) RBL-2H3 cells (2.0 × 10^4 cells/well) were seeded in 96-well plates and incubated for 12 h, after which they were treated with Pro10-1D for 4 h. […] Cell viability was assessed using the Cell Counting Kit-8 (CCK-8) (Dojindo Laboratories, Kumamoto, Japan), following the manufacturer’s protocol. Absorbance was measured at 450 nm to determine cell viability."}, "RBL-2H3 cells": {"tested_on": "RBL-2H3 cells", "assay": "Cell viability (CCK-8), RBL-2H3", "type": "cell-based, rat", "settings": "RBL-2H3, 4 h, CCK-8, absorbance 450 nm, up to highest experimental concentration", "procedure": "as §4, §5"}, "Fyn": {"target": "T1, Fyn (Homo sapiens, UniProt P06241)", "T1 construct": "purchased Eurofins (KinaseProfiler service, Celle-Lévescault, France)", "T1 sequence (P06241 whole entry)": "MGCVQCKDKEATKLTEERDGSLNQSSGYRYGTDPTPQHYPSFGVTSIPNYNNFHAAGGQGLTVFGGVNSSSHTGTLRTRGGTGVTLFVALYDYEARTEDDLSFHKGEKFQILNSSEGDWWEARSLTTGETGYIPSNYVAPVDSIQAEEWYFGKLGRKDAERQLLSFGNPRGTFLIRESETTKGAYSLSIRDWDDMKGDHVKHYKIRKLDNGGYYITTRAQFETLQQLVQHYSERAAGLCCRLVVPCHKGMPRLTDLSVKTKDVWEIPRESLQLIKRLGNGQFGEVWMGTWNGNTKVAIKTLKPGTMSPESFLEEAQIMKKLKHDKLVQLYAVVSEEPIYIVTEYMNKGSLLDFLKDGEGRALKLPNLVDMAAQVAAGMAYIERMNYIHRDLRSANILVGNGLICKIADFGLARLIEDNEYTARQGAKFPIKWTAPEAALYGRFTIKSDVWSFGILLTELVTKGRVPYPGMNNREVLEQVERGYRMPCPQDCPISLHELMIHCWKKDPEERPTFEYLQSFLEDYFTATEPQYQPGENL", "assay": "KinaseProfiler radiometric kinase assay, Fyn", "type": "biochemical", "settings": "Km concentration for ATP, [γ-33P]-ATP, 250 µM Cdc2 peptide, Tris pH 7.5, 40 min, room temperature, two independent experiments", "procedure": "as §2\n(§6) A radiometric Lyn, Fyn kinase assay was conducted at Eurofins (Celle-Lévescault, France) using KinaseProfiler^TM. The assays were carried out at the Km concentration for ATP in dose response for each kinase. Briefly, the Lyn (mouse) assay was incubated using a mixture of 50 mM Tris pH 7.5, 0.1 mM EGTA, 0.1 mM Na3VO4, 0.1% β-Mercaptoethanol, 0.1 mg/mL Poly (Glu, Tyr) 4:1, 10 mM Magnesium acetate, and [γ^33P]-ATP. The Fyn (human) assay was incubated with a mixture of 50 mM Tris pH 7.5, 0.1 mM EGTA, 0.1 mM Na3VO4, 250 µM KVEKIGEGTYGVVYK (Cdc2 peptide), 10 mM Magnesium acetate, and [γ^33P]-ATP. The activity of Lyn and Fyn was initiated by the addition of the Mg/ATP mix, and the reactions were incubated for 40 min at room temperature. The reaction was halted by adding 0.5% phosphoric acid. […]"}, "[6]": {"tested_on": "mouse macrophage RAW264.7 cells", "settings": "cited from earlier work", "from_the_text": "In this study, we utilized Pro10-1D, a 10-meric peptide developed previously by adding a D-arginine residue at the N terminal of Pro9-3D, an enantiomeric form of Pro9-3 [17]."}, "[7]": {"tested_on": "bone marrow-derived mast cells (BMMC cells)", "assay": "Antigen-induced MC degranulation, β-hexosaminidase assay, BMMCs", "type": "cell-based, mouse", "settings": "BMMCs (3.0 × 10^5 cells/well), DNP-specific IgE 100 ng/mL 4 h, Pro10-1D 30 min, then DNP-HSA 50 ng/mL 15 min, 37 °C, Tyrode buffer pH 7.4, absorbance 405 nm, three independent experiments in triplicate, read-out: IC50, inhibition of antigen-induced degranulation", "procedure": "as §4, with “Statistical significance is indicated by an asterisk; * p < 0.05, ** p < 0.01. PP2 is a general Src family kinase inhibitor.” left out\n(§7) RBL-2H3 cells were obtained from the American Type Culture Collection (Manassas, VA, USA) and cultured in a complete minimal essential medium (MEM) supplemented with L-glutamine […], streptomycin (100 μg/mL), and 15% fetal bovine serum at 37 °C in a CO2-enriched environment. […] After 4 to 5 weeks of culture, the purity of BMMCs was assessed using flow cytometric analysis, focusing on FcεRIα and c-Kit expression as markers of mast cell maturation. […]"}, "Lyn": {"target": "T2, Lyn (Mus musculus, UniProt P25911)", "T2 construct": "purchased Eurofins (KinaseProfiler service, Celle-Lévescault, France)", "T2 sequence (P25911 whole entry)": "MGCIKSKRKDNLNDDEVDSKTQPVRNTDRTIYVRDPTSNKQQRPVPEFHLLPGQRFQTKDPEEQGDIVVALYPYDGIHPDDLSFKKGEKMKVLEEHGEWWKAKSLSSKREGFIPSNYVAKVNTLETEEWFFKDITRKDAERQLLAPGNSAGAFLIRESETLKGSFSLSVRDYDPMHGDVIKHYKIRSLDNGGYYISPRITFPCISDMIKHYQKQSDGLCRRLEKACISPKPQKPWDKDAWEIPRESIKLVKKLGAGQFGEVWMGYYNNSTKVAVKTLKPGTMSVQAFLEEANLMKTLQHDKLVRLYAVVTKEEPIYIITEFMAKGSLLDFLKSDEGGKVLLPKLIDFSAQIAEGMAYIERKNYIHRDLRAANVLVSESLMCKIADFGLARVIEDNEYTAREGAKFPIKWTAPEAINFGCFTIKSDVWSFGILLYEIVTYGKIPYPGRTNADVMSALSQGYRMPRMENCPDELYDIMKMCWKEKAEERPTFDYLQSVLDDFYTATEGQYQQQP", "assay": "KinaseProfiler radiometric kinase assay, Lyn", "type": "biochemical", "settings": "Km concentration for ATP, [γ-33P]-ATP, Poly (Glu, Tyr) 4:1, 0.1 mg/mL, Tris pH 7.5, 40 min, room temperature, two independent experiments", "procedure": "as §2, §6"}, "[8]": {"tested_on": "rat basophilic leukemia (RBL)-2H3 cells", "assay": "Antigen-induced MC degranulation, β-hexosaminidase assay, RBL-2H3", "type": "cell-based", "settings": "RBL-2H3 (2.0 × 10^5 cells/well), DNP-specific IgE 20 ng/mL overnight, Pro10-1D 30 min, then DNP-HSA 25 ng/mL 15 min, 37 °C, Siraganian buffer pH 7.2, absorbance 405 nm, three independent experiments in triplicate, read-out: IC50, inhibition of antigen-induced degranulation", "procedure": "as §4, with “Statistical significance is indicated by an asterisk; * p < 0.05, ** p < 0.01. PP2 is a general Src family kinase inhibitor.” left out\nas §7"}, "[9]": {"tested_on": "inflammatory cell influx into bronchoalveolar lavage fluid", "settings": "allergic asthma, intranasal application; cited from earlier work", "from_the_text": "AMPs are small, naturally occurring antimicrobial peptides. In addition to their antimicrobial function, AMPs also play a role in regulating the host’s innate immune system. AMPs typically exert effects that inhibit the growth or induce the death of bacteria, fungi, and parasites. Unlike conventional antibiotics, most AMPs employ a distinct mode of action for their antibacterial activity, targeting the pathogen’s membrane. These unique mechanisms make AMPs promising candidates for the development of next-generation antibiotics. By August 2020, the antimicrobial peptide database c ..."}, "[10]": {"tested_on": "NF-κB and p38 MAPK in MCs", "settings": "IgE-independent stimulation; cited from earlier work", "from_the_text": "MCs play a pivotal role in the late-phase reaction following early-phase activation triggered by Ag stimulation. During the late-phase response, MCs produce and secrete a range of cytokines and chemokines, which further intensify the inflammatory cascade initiated in the early response, leading to the recruitment and activation of various immune cells. The late-phase response of MC activation is instrumental in sustaining and exacerbating allergic symptoms, such as bronchoconstriction and edema. Suppressing MC-mediated late-phase responses, therefore, can help prevent the ..."}},
  "note": "pIC50: −log10 of the molar value. Square brackets hold non-standard residues; d marks the D form. Peptide text beside a SMILES is read from it.",
  "data": [
    {"molecule": "LL-37", "values": [
      {"measurement": "IL-10 expression", "setting": "[1]", "result": "induces IL-10 expression"},
      {"measurement": "effect on pro-inflammatory activity of TLR ligands", "setting": "TLR ligands", "result": "neutralizes the pro-inflammatory activity of TLR ligands"}
    ]},
    {"molecule": "CC(C)(C)n1nc(-c2ccc(Cl)cc2)c2c(N)ncnc21", "note": "[PP2, 4-amino-5-(4-chlorophenyl)-7-(dimethylethyl)pyrazolo[3,4-d]pyrimidine]", "values": [
      {"measurement": "inhibition of ionomycin-induced degranulation", "setting": "BMMCs [2]", "result": "much weaker inhibitory effect on thapsigargin or ionomycin-induced degranulation compared to its inhibitory effect on antigen-induced degranulation"},
      {"measurement": "inhibition of thapsigargin-induced degranulation", "setting": "BMMCs [3]", "result": "much weaker inhibitory effect on thapsigargin or ionomycin-induced degranulation compared to its inhibitory effect on antigen-induced degranulation"}
    ]},
    {"molecule": "papiliocin", "values": [
      {"measurement": "inhibition of TLR4-NFκB signaling pathway", "setting": "[4]", "result": "inhibiting the TLR4-NFκB signaling pathway"},
      {"measurement": "effect on E. coli-induced sepsis", "setting": "E. coli-induced sepsis", "result": "alleviates the impact of E. coli-induced sepsis"}
    ]},
    {"molecule": "CC[C@@H](C)[C@@H](NC(=O)[C@@H](C)NC(=O)[C@@H](CC(C)C)NC(=O)[C@@H](Cc1c[nH]c2ccccc12)NC(=O)[C@@H](CC(C)C)NC(=O)[C@@H](CCCNC(=N)N)NC(=O)[C@H](N)CCCNC(=N)N)C(=O)N[C@H](Cc1c[nH]c2ccccc12)C(=O)N[C@H](CCCNC(=N)N)C(=O)N[C@H](CCCNC(=N)N)C(N)=O", "note": "[Pro10-1D] (H-[dR][dR][dL][dW][dL][dA][dI][dW][dR][dR]-NH2)", "values": [
      {"measurement": "cellular toxicity / cell viability", "setting": "BMMCs [5]", "result": "did not exhibit any signs of cellular toxicity, even at the highest experimental concentration"},
      {"measurement": "cellular toxicity / cell viability", "setting": "RBL-2H3 cells", "result": "did not exhibit any signs of cellular toxicity, even at the highest experimental concentration"},
      {"measurement": "pIC50", "setting": "Fyn", "result": "~4.65"},
      {"measurement": "toxicity to RAW264.7 cells", "setting": "[6]", "result": "non-toxic"},
      {"measurement": "pIC50", "setting": "[7]", "result": "~5.57"},
      {"measurement": "pIC50", "setting": "Lyn", "result": "~5.82"},
      {"measurement": "pIC50", "setting": "[8]", "result": "~4.94"}
    ]},
    {"molecule": "hBD2: human β-defensin-2 (GIGDPVTCLKSGAICHPVFCPRRYKQIGTCGLPGTKCCKKP; UniProt O15263 24-64, looked up)", "values": [
      {"measurement": "inflammatory cell influx into bronchoalveolar lavage fluid", "setting": "[9]", "result": "reduce inflammatory cell influx into bronchoalveolar lavage fluid"}
    ]},
    {"molecule": "O=C(CO)NCCCOc1cccc(CN2CCCCC2)c1", "note": "[roxatidine]", "values": [
      {"measurement": "release of pro-inflammatory cytokines; phosphorylation of NF-κB and p38 MAPK", "setting": "[10]", "result": "attenuate the release of pro-inflammatory cytokines by inhibiting the phosphorylation of NF-κB and p38 MAPK"}
    ]}
  ]
}
